Earlier results as cited in article PMC8236845.
Read-outs that look alike come from different tables or passages of the source. Numbered stars: 1 amine (or outer) side, 2 acyl side, 3 side chain; on linkers, the order of the positions; unused ones are H or OH. Bridge positions count the residues as written; N and C are the ends. Square brackets hold non-standard residues; d marks the D form. Peptide text beside a SMILES is read from it. * marks the point of attachment. pTerphenylCO(4''-OnC5H11) = CCCCCOc1ccc(-c2ccc(-c3ccc(C(=O)*)cc3)cc2)cc1; Orn(4R-OH,5R-OH) = O=C([C@H](C[C@@H](O)[C@@H](O)N[*:3])N[*:1])[*:2]; hTyr(3S-OH,4S-OH) = N[C@H](C(=O)O)[C@H](O)[C@@H](O)c1ccc(O)cc1; Pro(3S-OH,4S-Me) = C[C@H]1CN[C@H](C(=O)O)[C@H]1O; Hyp = O=C(O)[C@@H]1C[C@@H](O)CN1

How the values were obtained:
[1] = human, in vivo, cited from earlier work
[2] = test system: Middle Eastern Respiratory Syndroms (MERS) coronaviruses; conditions: cited from earlier work
SARS-CoV-2 = conditions: 2021, cited from earlier work
SARS-CoV-1 = conditions: cited from earlier work
[3] = used in the context of chemotherapy, cited from earlier work
[4] = test system: SARS-CoV-2-related Pangolin corona virus; conditions: cited from earlier work
[5] = cited from earlier work
[6] = DOGS topical 24 mg/kg, ref Sarasola et al. (2002)

CCCCCOc1ccc(-c2ccc(-c3ccc(C(=O)N[C@H]4C[C@@H](O)[C@@H](O)NC(=O)[C@@H]5[C@@H](O)[C@@H](C)CN5C(=O)[C@H]([C@@H](C)O)NC(=O)[C@H]([C@H](O)[C@@H](O)c5ccc(O)cc5)NC(=O)[C@@H]5C[C@@H](O)CN5C(=O)[C@H]([C@@H](C)O)NC4=O)cc3)cc2)cc1 [Anidulafungin] ({pTerphenylCO(4''-OnC5H11)}-[Orn(4R-OH,5R-OH)]T[Hyp][hTyr(3S-OH,4S-OH)]T[Pro(3S-OH,4S-Me)]; lactam 1-C)
C max (ng/ml) ([1]; iv): 2,500 ng/ml | Cmax ([1]; iv): 2200 nM

Cc1nc(Nc2ncc(C(=O)Nc3c(C)cccc3Cl)s2)cc(N2CCN(CCO)CC2)n1 [Dasatinib]
inhibition of MERS coronavirus [2]: reported to inhibit | inhibition of SARS-CoV-2 in cell-culture-based studies (SARS-CoV-2; ref Cagno et al.): failed to inhibit | inhibition of SARS-CoV-1 (SARS-CoV-1): reported to inhibit

CC(=O)O[C@@]12CO[C@@H]1C[C@H](O)[C@@]1(C)C(=O)[C@H](O)C3=C(C)[C@@H](OC(=O)[C@H](O)[C@@H](NC(=O)OC(C)(C)C)c4ccccc4)C[C@@](O)([C@@H](OC(=O)c4ccccc4)[C@H]21)C3(C)C [Docetaxel]
side effects ([3]; ref Gustafson et al., 2003): moderate to severe side effects | C max ([1]; iv): 933 ng/mL | Cmax ([1]; iv): 1230 nM

C[C@]12CC[C@@H]3c4ccc(OC(=O)c5ccccc5)cc4CC[C@H]3[C@@H]1CC[C@@H]2O [Estradiol benzoate]
inhibition of SARS-COV-2 replication in culture (SARS-CoV-2; ref Yang et al.): reported to inhibit | C max ([1]; im, 5 mg): 0.75 ng/mL | Cmax ([1]; im, 5 mg): 2 nM

Cc1ccc(NC(=O)c2ccc(CN3CCN(C)CC3)cc2)cc1Nc1nccc(-c2cccnc2)n1 [Imatinib]
inhibition of MERS coronavirus [2]: reported to inhibit | inhibition of SARS-CoV-2 in cell-culture-based studies (SARS-CoV-2; ref Cagno et al.): failed to inhibit | inhibition of SARS-CoV-1 (SARS-CoV-1): reported to inhibit

Cc1cn(-c2cc(NC(=O)c3ccc(C)c(Nc4nccc(-c5cccnc5)n4)c3)cc(C(F)(F)F)c2)cn1 [Nilotinib AMN-107, Nilotinib]
IC50 (SARS-CoV-2; ref Cagno et al., read-out: IC50 of inhibition of SARS-CoV-2 infection in vitro): 1500 to 3000 nM | C max (ng/ml) ([1]; po, 300 mg): 1,360 ng/ml | Cmax ([1]; po, 300 mg): 2570 nM

CC[C@H](C)[C@@H]1NC(=O)[C@H](Cc2ccc(O)cc2)NC(=O)[C@@H](N)CSSC[C@@H](C(=O)N2CCC[C@H]2C(=O)N[C@@H](CC(C)C)C(=O)NCC(N)=O)NC(=O)[C@H](CC(N)=O)NC(=O)[C@H](CCC(N)=O)NC1=O [Oxytocin]
C max ([1]; inhaled or intranasal, 44 ug): 0.005 ng/mL | Cmax ([1]; inhaled or intranasal, 44 ug): 5 nM | C max ([1]; iv): 0.005 ng/mL | Cmax ([1]; iv): 5 nM

COc1cc([C@@H]2c3cc4c(cc3[C@H](O)[C@H]3COC(=O)[C@@H]23)OCO4)cc(OC)c1OC [Picropodophyllin]
side effects ([3]; ref Ekman et al., 2016): moderate to severe side effects | C max (ng/ml) ([1]; po, 520 mg): 207–1,035 ng/ml | Cmax ([1]; po, 520 mg): 500 to 2500 nM

CO[C@H]1C[C@H](O[C@@H]2/C(C)=C/C[C@@H]3C[C@@H](C[C@]4(CC[C@H](C)[C@@H](C5CCCCC5)O4)O3)OC(=O)[C@@H]3C=C(C)/C(=N/O)[C@H]4OC/C(=C\C=C\[C@@H]2C)[C@]43O)O[C@@H](C)[C@@H]1O [Selamectin]
inhibition of cytopathic effect [4]: inhibited the cytopathic effect | Cmax ([5]; DOGS oral 24 mg/kg, ref Sarasola et al. (2002)): 9900 nM | C max [5, 6]: 86.5 ng/mL | Cmax [5, 6]: 110 nM | tolerability ([5]; oral, dogs, ref Sarasola et al., 2002): well tolerated
